Experiments:
[1] = format: physicochemical; details: Table 1; for Size (nm): lipid nanoparticle of the ionizable lipid (ionizable lipid/phospholipid/PEG lipid/structural lipid 50/10/1.5/38.5 %) with mRNA; for Encapsulated percentage (%) / PDI: lipid nanoparticle of the ionizable lipid with mRNA
BALB/c mice = test: Transfection efficiency: in vivo bioluminescence of luciferase mRNA encapsulated by different LNP; details: for Total photons number, Leg: intramuscular injection; for Average fluorescence intensity, Leg (intramuscular injection) / Average fluorescence intensity, Liver (tail vein injection): 10 μg/mice
Method: All animals were kept in adaptive feeding for more than 7 days before experiments, free to uptake food and drink water during experimental period, illumination 12/12 h alternating light and dark, room temperature was 20-26° C., humidity was 40-70%.
Experimental method: female BALB/c mice, encapsulated luciferase mRNA with different LNP by four different administrations which included subcutaneous injection (under the armpit), tail vein injection, intraperitoneal injection, intramuscular injection (the tibialis anterior muscle of mouse hind leg); 3, 6, 24, 48 h after administration, applied in vivo fluorescence imaging system (brand: Bruker, model: XTREME) for bioluminescence detection, the specific steps were as follows: substrate preparation: took appropriate amount of substrate Luciferin (brand: Promega) and added saline to make a 10 mg/ml solution, avoided light, injected 100 μl solution into each mouse intraperitoneally. […] Put the anesthetized mouse into machine, set the bioluminescence setting and took the photos, captured the photograph and then adjusted the upper and lower values of photograph, then collected data on the concentrated distribution of fluorescence (e.g., fluorescence intensity, average photons number, and total photons number) and processed data. Statistical analysis: the in vivo imaging outcome were shown in the fluorescence intensity or average of total photons number of different animal in the same tested group, which were used to judge whether the fluorescence intensity or total photon number of luciferase mRNA encapsulated by different LNP were high or low.
The fluorescence intensity and total photons number reflects the transfection efficiency of LNP, the value is higher, referring to the efficiency of delivering encapsulated substance into cell by LNP is higher.

SMILES | Size (nm) [1] | Encapsulated percentage (%) [1] | PDI [1] | Total photons number, Leg (BALB/c mice; 1 μg/ mice, 3 h) | Total photons number, Leg (BALB/c mice; 1 μg/ mice, 6 h) | Total photons number, Leg (BALB/c mice; 1 μg/ mice, 24 h) | Total photons number, Leg (BALB/c mice; 5 μg/mice, 3 h) | Total photons number, Leg (BALB/c mice; 5 μg/mice, 6 h) | Total photons number, Leg (BALB/c mice; 5 μg/mice, 24 h) | Average fluorescence intensity, Leg (intramuscular injection) (BALB/c mice; 3 h after administration) | Average fluorescence intensity, Liver (tail vein injection) (BALB/c mice; 3 h after administration) | Average fluorescence intensity, Leg (intramuscular injection) (BALB/c mice; 6 h after administration) | Average fluorescence intensity, Liver (tail vein injection) (BALB/c mice; 6 h after administration) | Average fluorescence intensity, Leg (intramuscular injection) (BALB/c mice; 24 h after administration) | Average fluorescence intensity, Liver (tail vein injection) (BALB/c mice; 24 h after administration)
CCCCC/C=C\C/C=C\CCCCCCCCC(CCCCCCCC/C=C\C/C=C\CCCCC)OC(=O)CCCN(C)C [MC3, reference compound] | 86.7 nm | 92.00% | 0.10 | 3.43E+08 | 7.41E+08 | 2.86E+08 |  |  |  |  |  |  |  |  | 
CCCCCCOCC(COCCCCCC)OC(=O)CCCCCCCN(CCCO)CCCCCCCCCCCC(=O)OC(COCC)COCC [A26] | 120.3 nm | 83.56% | 0.064 |  |  |  |  |  |  |  |  |  |  |  | 
CCCCCCCCCCCOC(=O)CCCCCN(CCCO)CCCCCCCC(=O)OCC(COCCCCCC)(COCCCCCC)COCCCCCC [A22] | 86.19 nm | 96.85% | 0.049 |  |  |  | 4.16E+09 | 5.74E+09 | 1.24E+09 |  |  |  |  |  | 
CCCCCCCCCCCCCCCCN(CCO)CCCCCC(=O)OCCCCCCCCCCC [A1] | 127.7 nm | 88.79% | 0.090 |  |  |  |  |  |  | 61.3 | 20.4 | 80.6 | 27.80 | 38.9 | 15.9
CCCCCCOCC(COCCCCCC)(COCCCCCC)COC(=O)CCCCCCCN(CCO)CCCCCCCC(=O)OCC(COCCCCCC)(COCCCCCC)COCCCCCC [A24] | 78.69 nm | 96.77% |  |  |  |  | 1.94E+08 | 1.56E+08 | 6.31E+07 |  |  |  |  |  | 
CCCCCCOCC(COCCCCCC)OC(=O)CCCCCCCN(CCCCCCCC(=O)OC(COCCCCCC)COCCCCCC)CCCNc1c(NC)c(=O)c1=O [A28] | 91.19 nm | 89.72% | 0.13 | 6.50E+08 | 4.26E+08 | 1.83E+08 |  |  |  |  |  |  |  |  | 
CCCCCCCCCCCOC(=O)CCCCCN(CCCO)CCCCCC(=O)OCCCCCCCCCCC [A6] | 171.5 nm | 87.09% | 0.190 |  |  |  |  |  |  | 60.3 | 11.9 | 40.9 | 9.0 | 19.1 | 12.2
CCCCCCOCC(COCCCCCC)NC(=O)CCCCCCCN(CCCO)CCCCCCCC(=O)OC(COCCCCCC)COCCCCCC [A25] | 105.3 nm | 83.60% | 0.094 |  |  |  | 4.23E+08 | 2.49E+08 | 9.50E+07 |  |  |  |  |  | 
CCCCCCCCCCCOC(=O)CCCCCN(CCO)CCCCCC(=O)OCCCCCCCCCCC [A3, reference compound] | 140.6 nm | 81.47% | 0.120 |  |  |  |  |  |  | 60.3 | 12.1 | 69.8 | 11.9 | 35.9 | 13.5
CCCCC/C=C/C/C=C/CCCCCCCCN(CCO)CCCCCCCC(=O)OC(COCCCCCC)COCCCCCC [A10] | 121.6 nm | 82.65% | 0.104 |  | 3.17E+09 |  |  |  |  |  |  |  |  |  | 
CCCCC/C=C/C/C=C/CCCCCCCCN(CCO)CCCCCC(=O)OCCCCCCCCCCC [A9] | 129.4 nm | 93.35% | 0.120 |  |  |  |  |  |  | 461.4 | 198.9 | 432.0 | 252.7 | 178.3 | 14.6
CCCCCCCCC(CCCCCCCC)OC(=O)CCCCCCCN(CCO)CCCCCCCC(=O)OC(COCCCCCC)COCCCCCC [A13] | 96.87 nm | 95.51% | 0.146 |  | 3.66E+09 |  |  |  |  |  |  |  |  |  | 
CCCCCCOCC(COCCCCCC)OC(=O)CCCCCCCN(C)CCCNc1c(NCCCNc2c(NCCCN(C)CCCCCCCC(=O)OC(COCCCCCC)COCCCCCC)c(=O)c2=O)c(=O)c1=O [A32] | 128.7 nm | 94.19% | 0.07 |  |  |  |  |  |  |  |  |  |  |  | 
CCCCC/C=C/C/C=C/CCCCCCCCN(CCO)CCCCCCCC(=O)OCC(COCCCCCC)(COCCCCCC)COCCCCCC [A20] | 77.17 nm | 97.09% | 0.121 |  |  |  | 5.99E+08 | 5.65E+08 | 2.03E+08 |  |  |  |  |  | 
CCCCCCOCC(COCCCCCC)OC(=O)CCCCCCCN(CCCCCCCC(=O)OC(COCCCCCC)COCCCCCC)CCCNc1c(NCCCNc2c(NC)c(=O)c2=O)c(=O)c1=O [A29] | 126.4 nm | 89.98% | 0.05 |  |  |  |  |  |  |  |  |  |  |  | 
CCCCCCCCCCCOC(=O)CCCCCN(CCCCCCCC(=O)OC(COCCCCCC)COCCCCCC)CCCNc1c(NC)c(=O)c1=O [A27] | 94.16 nm | 96.69% | 0.13 | 1.34E+09 | 1.04E+09 | 3.41E+08 |  |  |  |  |  |  |  |  | 
CCCCCCCCC(CCCCCCCC)OC(=O)CCCCCCCN(CCCO)CCCCCCCC(=O)OC(CCCCCCCC)CCCCCCCC [A5] | 135.0 nm | 90.11% | 0.090 |  |  |  |  |  |  | 675.7 | 2231.2 | 1566.4 | 3738.2 | 892.2 | 73.5
CCCCCCCCC(CCCCCCCC)OC(=O)CCCCCCCN(CCCO)CCCCCCCC(=O)OC(COCCCCCC)COCCCCCC [A17] | 109.5 nm | 92.99% | 0.1037 |  |  |  |  |  |  |  |  |  |  |  | 
CCCCCCOCC(COCCCCCC)OC(=O)CCCCCCCN(CCCO)CCCCCCCC(=O)OC(COCCCCCC)COCCCCCC [A19] | 110.1 nm | 88.00% | 0.0923 | 3.69E+09 | 4.77E+09 | 7.33E+08 |  |  |  |  |  |  |  |  | 
CCCCCCCCCCCOC(=O)CCCCCN(CCCO)CCCCCCCC(=O)OC(CCCCCCCC)CCCCCCCC [A4, reference compound] | 131.1 nm | 79.24% | 0.110 |  |  |  |  |  |  | 1847.5 | 7962.6 | 1956.2 | 7745.9 | 1009.7 | 326.4
CCCCCCCCOCC(COCCCCCCCC)OC(=O)CCCCCCCN(C)CCCNc1c(NCCCN(C)CCCCCCCC(=O)OC(COCCCCCCCC)COCCCCCCCC)c(=O)c1=O [A31] |  |  |  | 1.58E+08 | 2.65E+08 | 8.43E+07 |  |  |  |  |  |  |  |  | 
CCCCCCCCCCCOC(=O)CCCCCN(CCO)CCCCCCCC(=O)OCC(COCCCCCC)(COCCCCCC)COCCCCCC [A23] | 74.63 nm | 97.41% | 0.054 |  |  |  | 4.39E+09 | 2.68E+09 | 8.00E+08 |  |  |  |  |  | 
CCCCCCOCC(COCCCCCC)OC(=O)CCCCCCCN(CCCCCCCC(=O)OC(COCCCCCC)COCCCCCC)CCCNc1c(NCCCNc2c(NCCCN(CCCCCCCC(=O)OC(COCCCCCC)COCCCCCC)CCCCCCCC(=O)OC(COCCCCCC)COCCCCCC)c(=O)c2=O)c(=O)c1=O [A30] | 110.1 nm | 98.14% | 0.28 |  |  |  |  |  |  |  |  |  |  |  | 
CCCCC/C=C/C/C=C/CCCCCCCCN(CCCO)CCCCCCCC(=O)OC(COCCCCCC)COCCCCCC [A15] |  |  |  |  | 8.78E+08 |  |  |  |  |  |  |  |  |  | 
CCCCCCCCCCCOC(=O)CCCCCN(CCO)CCCCCCCC(=O)OC(COCCCCCC)COCCCCCC [A11] |  |  |  |  | 1.33E+09 |  |  |  |  |  |  |  |  |  | 
